Drawing on patent US9624182B2, “Compounds as lysophosphatidic acid receptor antagonists” (Amira Pharmaceuticals, Inc., priority 2009, dated 2017), this text covers IC50 for twelve compounds.

For the assay, the target named is T1, human LPA1 (Homo sapiens, UniProt Q92633).
T1 construct: the full-length cDNA for human LPA1 was obtained by PCR of the reverse transcription reaction; expressed in transfected cells
T1 sequence (Q92633 whole entry): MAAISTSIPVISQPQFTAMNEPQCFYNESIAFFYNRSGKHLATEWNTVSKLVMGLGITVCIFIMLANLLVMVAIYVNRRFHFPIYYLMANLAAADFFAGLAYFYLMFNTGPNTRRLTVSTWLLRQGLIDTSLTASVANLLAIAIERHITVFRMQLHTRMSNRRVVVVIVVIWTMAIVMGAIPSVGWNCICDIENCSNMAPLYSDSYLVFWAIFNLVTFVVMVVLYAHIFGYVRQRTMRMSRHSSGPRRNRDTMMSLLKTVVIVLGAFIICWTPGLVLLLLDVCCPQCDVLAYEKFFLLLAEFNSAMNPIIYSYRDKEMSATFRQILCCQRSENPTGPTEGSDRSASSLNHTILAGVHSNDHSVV
Kind of assay: LPA1 calcium flux assay. Format: cell-based. The note with it: CHO cells expressing human LPA1, stimulated with 10 nM LPA; read-out: HLPA1 Ca Flux IC50. In short, it runs like this: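 Antagonism measured as block of 10 nM LPA-evoked calcium rise in stable human LPA1-CHO cells. After overnight serum-free culture and 1 h dye loading at 37 °C (buffer with 0.3% fatty-acid-free albumin), compound was added for 30 min at room temperature. Titration curves gave IC50.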
On to `COc1ccc(CC(C)Nc2c(C)noc2-c2ccc(-c3ccccc3CC(=O)O)cc2)cc1` (stereo not drawn) [Compound 1-238, (4′-{4-[2-(4-Methoxy-phenyl)-1-methyl-ethylamino]-3-methyl-isoxazol-5-yl}-biphenyl-2-yl)-acetic acid], for which the IC50 is 1000 to 50000 nM.

For `Cc1noc(-c2ccc(-c3ccc(C4(C(=O)O)CC4)cc3)cc2)c1C(O)CN[C@H]1CCc2ccccc21` (stereo partly drawn) [Compound 1-187, 1-(4′-{4-[1-Hydroxy-2-((S)-indan-1-ylamino)-ethyl]-3-methyl-isoxazol-5-yl}-biphenyl-4-yl)-cyclopropanecarboxylic acid], the IC50 is less than 300 nM.

For the compound `Cc1noc(-c2ccc(-c3ccc(C4(C(=O)O)CC4)cc3)cc2)c1C[S+]([O-])CCc1ccccc1` (stereo not drawn) [Compound 1-54, 1-{4′-[3-Methyl-4-(2-phenyl-ethanesulfinylmethyl)-isoxazol-5-yl]-biphenyl-4-yl}-cyclopropanecarboxylic acid], the IC50 is less than 300 nM.

As for `Cc1noc(-c2ccc(-c3ccc(C4(C(=O)O)CC4)cc3)cc2)c1C(O)/C=C/c1cccc(C(F)(F)F)c1` (stereo not drawn) [Compound 1-161, 1-(4′-{4-[(E)-1-Hydroxy-3-(3-trifluoromethyl-phenyl)-allyl]-3-methyl-isoxazol-5-yl}-biphenyl-4-yl)-cyclopropanecarboxylic acid], the IC50 was less than 300 nM.

In the case of `Cc1noc(-c2ccc(-c3ccc(C4CC4C(=O)O)cc3)cc2)c1[C@H](O)COCc1ccccc1` (single isomer, unassigned) [Compound 1-217], the IC50 is less than 300 nM.

For `CC(=O)c1cccc(Nc2c(C)noc2-c2ccc(-c3ccc(C4(C(=O)O)CC4)cc3)cc2)n1` [Compound 1-311, 1-{4′-[4-(6-Acetyl-pyridin-2-ylamino)-3-methyl-isoxazol-5-yl]-biphenyl-4-yl}-cyclopropanecarboxylic acid], the IC50 is less than 300 nM.

As for `Cc1noc(-c2ccc(-c3ccc(C4(CC(=O)O)CC4)cc3)cc2)c1NC(CCc1ccccc1)c1ccccc1` (stereo not drawn) [Compound 1-213, (1-{4′-[4-(1,3-Diphenyl-propylamino)-3-methyl-isoxazol-5-yl]-biphenyl-4-yl}-cyclopropyl)-acetic acid], the IC50 is 300 to 1000 nM.

In the case of `Cc1noc(-c2ccc(-c3ccc(C4(CC(=O)O)CC4)cc3)cc2)c1CC(F)(F)CCc1ccccc1` [Compound 1-175, (1-{4′-[4-(2,2-Difluoro-4-phenyl-butyl)-3-methyl-isoxazol-5-yl]-biphenyl-4-yl}-cyclopropyl)-acetic acid], the IC50 was less than 300 nM.

Take `Cc1noc(-c2ccc(-c3ccc(C4(CC(=O)O)CC4)cc3)cc2)c1NC(C)CCc1cccc(Cl)c1` (stereo not drawn) [Compound 1-184, [1-(4′-{4-[3-(3-Chloro-phenyl)-1-methyl-propylamino]-3-methyl-isoxazol-5-yl}-biphenyl-4-yl)-cyclopropyl]-acetic acid]: the IC50 is less than 300 nM.

Regarding `Cc1noc(-c2ccc(-c3ccc(C4(C(=O)O)CC4)cc3)cc2)c1C(O)C(F)(F)CCc1ccccc1` (single isomer, unassigned) [Compound 1-254, 1-{4′-[4-(2,2-Difluoro-1-hydroxy-4-phenyl-butyl)-3-methyl-isoxazol-5-yl]-biphenyl-4-yl}-cyclopropanecarboxylic acid], the IC50 fell in the range of 300 to 1000 nM.

As for `Cc1noc(-c2ccc(-c3ccc(C4(C(=O)O)CC4)cc3)cc2)c1CNS(=O)(=O)Cc1ccccc1Cl` [Compound 1-61, 1-(4′-{4-[(2-Chloro-phenylmethanesulfonylamino)-methyl]-3-methyl-isoxazol-5-yl}-biphenyl-4-yl)-cyclopropanecarboxylic acid], the IC50 was 1000 to 50000 nM.

For the compound `Cc1noc(-c2ccc(-c3ccc(C4(C(=O)O)CC4)cc3)cc2)c1NC(=O)NCc1c(F)cccc1F` [Compound 1-16, 1-(4′-{4-[3-(2,6-Difluoro-benzyl)-ureido]-3-methyl-isoxazol-5-yl}-biphenyl-4-yl)-cyclopropanecarboxylic acid], the IC50 lay within 300 to 1000 nM.
